# Experimental data as given in ChEMBL document CHEMBL1201862, “PubChem BioAssay data set” (2004).
#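 Step 1: Grow cells in 96-well plates. Step 2: Expose to compound for 48 hours at 5 concentrations. Step 3: Interpolate endpoints linearly; if unreached, use highest concentration. The concentration for 50% growth inhibition is given as GI50.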 The source made the active and inactive calls. No stated cut-off is given here; in the data, active = GI50 up to about 1.1 µM and inactive = higher.
# Key:
# Assay in all cases: NCI tumour cell line growth inhibition, 48 h
# SF-268 = system: SF-268
# TK-10 = system: TK-10
# SN12C = system: SN12C
# SF-295 = system: SF-295
# SK-MEL-2 = system: SK-MEL-2
# SK-OV-3 = system: SK-OV-3
# 786-0 = system: 786-0
# UO-31 = system: UO-31
# OVCAR-4 = system: OVCAR-4
# COLO 205 = system: COLO 205
# MDA-N = system: MDA-N
# NCI-H460 = system: NCI-H460
# SK-MEL-5 = system: SK-MEL-5
# U-251 = system: U-251
# OVCAR-5 = system: OVCAR-5
# T47D = system: T47D
# SR = system: SR
# DU-145 = system: DU-145
# Malme-3M = system: Malme-3M
# MOLT-4 = system: MOLT-4
# ACHN = system: ACHN
# MDA-MB-435 = system: MDA-MB-435
# MDA-MB-231 = system: MDA-MB-231
# UACC-257 = system: UACC-257
# M14 = system: M14
# HCT-15 = system: HCT-15
# UACC-62 = system: UACC-62
# HT-29 = system: HT-29
# A549 = system: A549
# HOP-62 = system: HOP-62
# K562 = system: K562
# Hs-578T = system: Hs-578T
# IGROV-1 = system: IGROV-1
# NCI/ADR-RES = system: NCI/ADR-RES
# RPMI-8226 = system: RPMI-8226
# LOX IMVI = system: LOX IMVI
# EKVX = system: EKVX
# KM12 = system: KM12
# PC-3 = system: PC-3
# A498 = system: A498
# OVCAR-3 = system: OVCAR-3
# SW-620 = system: SW-620
# HL-60 = system: HL-60
# SNB-19 = system: SNB-19
# NCI-H522 = system: NCI-H522
# CAKI-1 = system: CAKI-1
# NCI-H23 = system: NCI-H23
# NCI-H226 = system: NCI-H226
# HCC 2998 = system: HCC 2998
# SF-539 = system: SF-539
# HCT-116 = system: HCT-116
# MCF7 = system: MCF7
# SNB-75 = system: SNB-75
# BT-549 = system: BT-549
# CCRF-CEM = system: CCRF-CEM
# OVCAR-8 = system: OVCAR-8
# SK-MEL-28 = system: SK-MEL-28
# RXF 393 = system: RXF 393
# HOP-92 = system: HOP-92
compound,measurement,setting,value
Nc1c(C(=O)O)nnc2ccc(Cl)cc12,GI50,SF-268,> 100 µM (inactive)
same,GI50,TK-10,> 100 µM (inactive)
same,GI50,SN12C,> 100 µM (inactive)
same,GI50,SF-295,> 100 µM (inactive)
same,GI50,SK-MEL-2,> 100 µM (inactive)
same,GI50,SK-OV-3,> 100 µM (inactive)
same,GI50,786-0,> 100 µM (inactive)
same,GI50,UO-31,94.8 µM (inactive)
same,GI50,OVCAR-4,> 100 µM (inactive)
same,GI50,COLO 205,> 100 µM (inactive)
same,GI50,MDA-N,> 100 µM (inactive)
same,GI50,NCI-H460,> 100 µM (inactive)
same,GI50,SK-MEL-5,> 100 µM (inactive)
same,GI50,U-251,> 100 µM (inactive)
same,GI50,OVCAR-5,> 100 µM (inactive)
same,GI50,T47D,> 100 µM (inactive)
same,GI50,SR,> 100 µM (inactive)
same,GI50,DU-145,> 100 µM (inactive)
same,GI50,Malme-3M,> 100 µM (inactive)
same,GI50,MOLT-4,> 100 µM (inactive)
same,GI50,ACHN,> 100 µM (inactive)
same,GI50,MDA-MB-435,> 100 µM (inactive)
same,GI50,MDA-MB-231,> 100 µM (inactive)
same,GI50,UACC-257,> 100 µM (inactive)
same,GI50,M14,> 100 µM (inactive)
same,GI50,HCT-15,> 100 µM
same,GI50,UACC-62,> 100 µM (inactive)
same,GI50,HT-29,> 100 µM (inactive)
same,GI50,A549,> 100 µM (inactive)
same,GI50,HOP-62,> 100 µM (inactive)
same,GI50,K562,> 100 µM (inactive)
same,GI50,Hs-578T,> 100 µM (inactive)
same,GI50,IGROV-1,> 100 µM (inactive)
same,GI50,NCI/ADR-RES,> 100 µM (inactive)
same,GI50,RPMI-8226,> 100 µM (inactive)
same,GI50,LOX IMVI,> 100 µM (inactive)
same,GI50,EKVX,> 100 µM (inactive)
same,GI50,KM12,> 100 µM (inactive)
same,GI50,PC-3,> 100 µM (inactive)
same,GI50,A498,58.6 µM (inactive)
same,GI50,OVCAR-3,> 100 µM (inactive)
same,GI50,SW-620,> 100 µM (inactive)
same,GI50,HL-60,> 100 µM (inactive)
same,GI50,SNB-19,> 100 µM (inactive)
same,GI50,NCI-H522,> 100 µM (inactive)
same,GI50,CAKI-1,> 100 µM (inactive)
same,GI50,NCI-H23,> 100 µM (inactive)
same,GI50,NCI-H226,41.8 µM (inactive)
same,GI50,HCC 2998,> 100 µM (inactive)
same,GI50,SF-539,> 100 µM (inactive)
same,GI50,HCT-116,> 100 µM (inactive)
same,GI50,MCF7,> 100 µM (inactive)
same,GI50,SNB-75,> 100 µM (inactive)
same,GI50,BT-549,> 100 µM (inactive)
same,GI50,CCRF-CEM,> 100 µM (inactive)
same,GI50,OVCAR-8,> 100 µM (inactive)
O=C(Nc1cccc(C(=O)NCCCO)c1)/C(=C/c1ccccc1)NC(=O)c1ccccc1,GI50,SF-268,> 100 µM (inactive)
same,GI50,TK-10,> 100 µM (inactive)
same,GI50,SN12C,> 100 µM (inactive)
same,GI50,SF-295,> 100 µM (inactive)
same,GI50,SK-MEL-2,> 100 µM (inactive)
same,GI50,SK-OV-3,> 100 µM (inactive)
same,GI50,786-0,> 100 µM (inactive)
same,GI50,UO-31,> 100 µM (inactive)
same,GI50,OVCAR-4,> 100 µM (inactive)
same,GI50,COLO 205,> 100 µM (inactive)
same,GI50,MDA-N,> 100 µM (inactive)
same,GI50,NCI-H460,> 100 µM (inactive)
same,GI50,SK-MEL-5,> 100 µM (inactive)
same,GI50,U-251,> 100 µM (inactive)
same,GI50,SK-MEL-28,> 100 µM (inactive)
same,GI50,OVCAR-5,> 100 µM (inactive)
same,GI50,RXF 393,> 100 µM (inactive)
same,GI50,T47D,> 100 µM (inactive)
same,GI50,DU-145,> 100 µM (inactive)
same,GI50,Malme-3M,> 100 µM (inactive)
same,GI50,MOLT-4,84.1 µM (inactive)
same,GI50,ACHN,> 100 µM (inactive)
same,GI50,MDA-MB-435,> 100 µM (inactive)
same,GI50,MDA-MB-231,> 100 µM (inactive)
same,GI50,UACC-257,> 100 µM (inactive)
same,GI50,M14,> 100 µM (inactive)
same,GI50,HCT-15,> 100 µM
same,GI50,UACC-62,> 100 µM (inactive)
same,GI50,HT-29,> 100 µM (inactive)
same,GI50,A549,> 100 µM (inactive)
same,GI50,HOP-62,> 100 µM (inactive)
same,GI50,K562,> 100 µM (inactive)
same,GI50,Hs-578T,> 100 µM (inactive)
same,GI50,HOP-92,> 100 µM (inactive)
same,GI50,IGROV-1,> 100 µM (inactive)
same,GI50,NCI/ADR-RES,> 100 µM (inactive)
same,GI50,RPMI-8226,> 100 µM (inactive)
same,GI50,LOX IMVI,> 100 µM (inactive)
same,GI50,EKVX,> 100 µM (inactive)
same,GI50,KM12,> 100 µM (inactive)
same,GI50,PC-3,> 100 µM (inactive)
same,GI50,A498,> 100 µM (inactive)
same,GI50,OVCAR-3,> 100 µM (inactive)
same,GI50,SW-620,> 100 µM (inactive)
same,GI50,HL-60,> 100 µM (inactive)
same,GI50,SNB-19,> 100 µM (inactive)
same,GI50,NCI-H522,> 100 µM (inactive)
same,GI50,CAKI-1,> 100 µM (inactive)
same,GI50,NCI-H23,> 100 µM (inactive)
same,GI50,NCI-H226,> 100 µM (inactive)
same,GI50,HCC 2998,> 100 µM (inactive)
same,GI50,SF-539,> 100 µM (inactive)
same,GI50,HCT-116,> 100 µM (inactive)
same,GI50,MCF7,> 100 µM (inactive)
same,GI50,SNB-75,> 100 µM (inactive)
same,GI50,BT-549,> 100 µM (inactive)
same,GI50,CCRF-CEM,> 100 µM (inactive)
same,GI50,OVCAR-8,> 100 µM (inactive)
